Broadly, the GI50 is the concentration that inhibits growth by half.

What all share (test): DTP human tumour cell line panel, 48 h
Experiment [1] relates to 786-0.
Experiment [2] has as its system CAKI-1.
Experiment [3] relates to DU-145.
Experiment [4] concerns EKVX.
Experiment [5] has as its system HCT-116.
Experiment [6] deals with HOP-62.
Experiment [7] relates to LOX IMVI.
For experiment [8], the system named is MDA-MB-231.
Experiment [9] deals with MOLT-4.
The test system of experiment [10] is OVCAR-5.
The test system of experiment [11] is PC-3.
Experiment [12] concerns SK-MEL-2.
For experiment [13], the system named is SNB-19.
The subject of experiment [14] is U-251.
In experiment [15] the test system is UACC-62.
In experiment [16] the test system is A498.
For experiment [17], the system named is Malme-3M.
In experiment [18] the test system is SF-268.
Experiment [19] relates to CCRF-CEM.

Several values for one entry are separate records, joined by “and”; a condition that tells them apart may be missing. Equal entries are not always repeated.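 Compound exposure: 48 hours, 5 concentrations, 96-well plates. GI50 marks 50% less growth.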 Activity calls are given as the source filed them. Cut-off read from the data, not from the text of the source: active = GI50 up to about 1.1 µM and inactive = higher.

As to `CCCCCCCCCCCCCCCCCCNC(=S)N/C=C1/C(=O)C=C(C)OC1=O`, the GI50 in experiment [1] is 29.6 µM (inactive); in experiment [2] it was 23.4 µM (inactive); in [3], 24.9 µM (inactive); in experiment [4], 20.6 µM (inactive); in experiment [5] it was 30.1 µM (inactive); in experiment [6], 31.8 µM (inactive). Moreover, the GI50 is 36.9 µM (inactive) in experiment [7]; 33 µM (inactive) in experiment [8]; 12.7 µM (inactive) in experiment [9]; 18.4 µM (inactive) in [10]; 17 µM (inactive) in experiment [11]; 21.4 µM (inactive) in experiment [12]. For the same compound, the GI50 in experiment [13] was 20.4 µM (inactive); in experiment [14], 31.3 µM (inactive); in experiment [15] it was 30.2 µM (inactive).
As for `C=C1C(=O)OC2CC1C(OC(C)=O)C/C(C)=C/CC/C(C)=C\CCC2(C)O` (configuration not stated), the GI50 in experiment [1] is 3.24 µM (inactive) and 2.6 µM (inactive); in experiment [16] it was 5.22 µM (inactive) and 5.52 µM (inactive); in experiment [2], 4.34 µM (inactive) and 2.96 µM (inactive); in [3], 3.95 µM (inactive) and 5.77 µM (inactive); in experiment [4], 3.81 µM (inactive) and 3.73 µM (inactive); in experiment [5], 2.08 µM (inactive) and 2.91 µM (inactive). Besides, the GI50 in [6] was 15.3 µM (inactive) and 13.6 µM (inactive); in [7] it was 2.46 µM (inactive) and 2.14 µM (inactive); in experiment [8], 7.13 µM (inactive) and 8.95 µM (inactive); in experiment [9], 2.22 µM (inactive) and 1.88 µM (inactive); in experiment [17], 3.25 µM (inactive); in experiment [10], 10.9 µM (inactive) and 16.5 µM (inactive). In addition, the GI50 is 5.24 µM (inactive) and 5.45 µM (inactive) in [18]; 17.3 µM (inactive) and 15.1 µM (inactive) in experiment [13]; 10.7 µM (inactive) and 10.3 µM (inactive) in experiment [14].
Turning to `O=C1CCCc2ccc3c(c21)CC1(Cc2ccccc2C1)C3`, the GI50 in [1] was 29.1 µM (inactive); in experiment [16], 25.6 µM (inactive); in [4], 7.78 µM (inactive); in [5], 23 µM (inactive); in [6] it was 39.1 µM (inactive); in experiment [7], 30.6 µM (inactive). Also, the GI50 in experiment [8] is 27.5 µM (inactive); in experiment [17], 33.2 µM (inactive); in experiment [10], 31 µM (inactive); in experiment [11], 98.4 µM (inactive); in experiment [12] it was > 100 µM (inactive); in [14], 41.8 µM (inactive). The GI50 in experiment [15] was 26.1 µM (inactive).
Take `Cn1c(S)nc2c(Cl)cc(Cl)cc2c1=O`: the GI50 is > 100 µM (inactive) in experiment [1]; 67.9 µM (inactive) in [2]; 24.8 µM (inactive) in experiment [19]; > 100 µM (inactive) in experiment [3]; > 100 µM (inactive) in [4]; > 100 µM (inactive) in experiment [5]. Besides, the GI50 in experiment [6] is > 100 µM (inactive); in experiment [7], > 100 µM (inactive); in experiment [8] it was > 100 µM (inactive); in experiment [9], 18.7 µM (inactive); in [10] it was > 100 µM (inactive); in experiment [11], > 100 µM (inactive). In addition, the GI50 in experiment [18], in [12], in experiment [13], in experiment [14] and in [15] was > 100 µM (inactive) each time.
For the compound `OCCOCCN1CCN(c2nc(N3CCCC3)c3nc(Cl)c(NCc4ccccc4)nc3n2)CC1`, the GI50 in [1] was 13 µM (inactive); in experiment [2] it was 16 µM (inactive); in [19], 12.7 µM (inactive); in [3], 11.9 µM (inactive); in [4], 13.6 µM (inactive); in experiment [5], 12.8 µM (inactive). Also, the GI50 in [6] is 12.6 µM (inactive); in [7] it was 10.5 µM (inactive); in experiment [8], 16.9 µM (inactive); in experiment [9], 10.7 µM (inactive); in experiment [17] it was 15.8 µM (inactive); in [10], 15.1 µM (inactive). Besides, the GI50 in [11] is 13.9 µM (inactive); in [18] it was 16.5 µM (inactive); in experiment [12], 17.5 µM (inactive); in experiment [13], 15.3 µM (inactive); in experiment [14], 12 µM (inactive); in [15], 14 µM (inactive).
For `Cc1ccc([N+](=O)[O-])cc1S(=O)(=O)Nc1ccc(C(=O)/C=C/c2ccccc2)cc1`, the GI50 was 16.7 µM (inactive) in experiment [1]; 22.2 µM (inactive) in experiment [2]; 20 µM (inactive) in [19]; 15.8 µM (inactive) in experiment [3]; 18 µM (inactive) in experiment [4]; 15.7 µM (inactive) in experiment [5]. Also, the GI50 in experiment [6] is 17.7 µM (inactive); in [7], 19 µM (inactive); in experiment [8], 16.9 µM (inactive); in experiment [9], 4.51 µM (inactive); in experiment [17], 18.5 µM (inactive); in [10], 25.6 µM (inactive). Besides, the GI50 in [11] was 15.6 µM (inactive); in experiment [18], 24.3 µM (inactive); in [12] it was 19.1 µM (inactive); in [13], 18.6 µM (inactive); in experiment [15], 13.2 µM (inactive).
In the case of `CN(C)CC(/C(Cc1ccccc1)=N\NC(=O)C[n+]1ccccc1)c1ccccc1` (configuration not stated), the GI50 in [1], in experiment [16], in experiment [2], in experiment [19], in experiment [4] and in experiment [5] was > 100 µM (inactive) each time. Moreover, the GI50 was > 100 µM (inactive) in experiment [6]; > 10 µM (inactive) in experiment [7]; > 100 µM (inactive) in [9]; > 100 µM (inactive) in experiment [17]; > 100 µM (inactive) in [10]; > 100 µM (inactive) in [18]. In addition, the GI50 in [12], in [13], in experiment [14] and in [15] was > 100 µM (inactive) throughout.
For the compound `COc1cc(N(CCC#N)CCC#N)ccc1C(/N=N/c1ccccc1C)=N\NC(=O)c1ccc(C)cc1`, the GI50 in [1] was 36.6 µM (inactive); in experiment [2] it was > 100 µM (inactive); in experiment [19] it was 15.2 µM (inactive); in experiment [3] it was > 100 µM (inactive); in experiment [4], 28.4 µM (inactive); in experiment [5], 36.1 µM (inactive). In addition, the GI50 is > 100 µM (inactive) in experiment [6]; 40.8 µM (inactive) in experiment [7]; 25.5 µM (inactive) in experiment [8]; 28 µM (inactive) in experiment [9]; 34.7 µM (inactive) in experiment [17]; > 100 µM (inactive) in experiment [10]. Moreover, the GI50 was 59.3 µM (inactive) in experiment [11]; 64.4 µM (inactive) in [18]; 43.9 µM (inactive) in [12]; 63 µM (inactive) in [13]; 42.3 µM (inactive) in [14]; 43.4 µM (inactive) in experiment [15].
Take `Cc1ccc(S(=O)(=O)OC(COC(=O)c2ccccc2)C(OS(=O)(=O)c2ccc(C)cc2)C(OS(=O)(=O)c2ccc(C)cc2)C(COC(=O)c2ccccc2)OS(=O)(=O)c2ccc(C)cc2)cc1` (configuration not stated): the GI50 in experiment [1], in experiment [16], in experiment [2], in experiment [19], in experiment [4] and in experiment [5] was > 100 µM (inactive) in each case. The GI50 in [6], in [7], in experiment [9], in [17], in experiment [18] and in experiment [12] was > 100 µM (inactive) in each case. Further, the values for the GI50 in experiment [13], in experiment [14] and in experiment [15] were > 100 µM (inactive), > 100 µM (inactive) and > 10 µM (inactive), respectively.
`CC1/C(=N/O)CC(c2ccccc2)N(N=O)C1c1ccccc1` (configuration not stated): the GI50 in experiment [1], in experiment [2], in experiment [19], in experiment [3], in experiment [4] and in experiment [5] was > 100 µM (inactive) each time. Besides, the GI50 in experiment [6], in experiment [7], in [8], in experiment [9], in experiment [17] and in experiment [11] was > 100 µM (inactive) each time. The GI50 in experiment [18], in experiment [12], in experiment [13], in experiment [14] and in experiment [15] was > 100 µM (inactive) in each case.
With `COc1ccc(/C=C(\C#N)c2nc(-c3cc4ccccc4oc3=O)cs2)cc1`, the GI50 in experiment [1] was 19.3 µM (inactive); in experiment [2], 76 µM (inactive); in experiment [19] it was > 100 µM (inactive); in [3], 65.2 µM (inactive); in experiment [4], 35 µM (inactive); in [5] it was 32.3 µM (inactive). For the same compound, the GI50 is 15.2 µM (inactive) in experiment [6]; 30.5 µM (inactive) in [7]; 14.8 µM (inactive) in experiment [8]; > 100 µM (inactive) in experiment [9]; 20.1 µM (inactive) in experiment [17]; 51.1 µM (inactive) in [10]. Besides, the GI50 in [11] is 47.8 µM (inactive); in experiment [18] it was 17.9 µM (inactive); in [12], 33.3 µM (inactive); in experiment [13], 16.4 µM (inactive); in experiment [14], 13.5 µM (inactive); in experiment [15], 22.7 µM (inactive).
On to `Cc1ccc2c(O)cc(-c3ccccc3)nc2n1`, for which the GI50 in [1] is 0.222 µM (active); in [2], 0.0564 µM (active); in experiment [19], 0.0887 µM (active); in [3], 0.274 µM (active); in experiment [4] it was 1.74 µM (inactive); in experiment [5] it was 0.0507 µM (active). Further, the GI50 in [6] was 0.366 µM (active); in [7] it was 0.116 µM (active); in experiment [8], 0.467 µM (active); in experiment [9], 0.116 µM (active); in experiment [17] it was 0.0867 µM (active); in [10] it was 2.56 µM (inactive). For the same compound, the GI50 in experiment [11] is 0.0519 µM (active); in [18], 1.56 µM (inactive); in [12], 0.103 µM (active); in experiment [13], 0.309 µM (active); in [14], 0.0875 µM (active); in [15] it was 0.0521 µM (active).

The record behind these values is ChEMBL document CHEMBL1201862, “PubChem BioAssay data set” (2004).
